In PubChem BioAssay (NCI) one finds GI50 and TGI data, which are given here for six compounds.

Each structure is given as a SMILES string. Several values for one entry are separate records, joined by “and”; a condition that tells them apart may be missing. Equal values may be shown once.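 These data come from cells grown in 96-well plates and exposed to compound for 48 hours at five concentrations. GI50: concentration for 50% inhibition of growth. At the TGI there is no net growth.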

Assay in all cases: NCI tumour cell line growth inhibition, 48 h
The test system of assay [1] is HT29 colon.
The subject of assay [2] is HCC-2998 colon.
In assay [3] the test system is NCI-H522 lung.
In assay [4] the test system is TK-10 renal.
In assay [5] the test system is HCT-116 colon.
In assay [6] the test system is SNB-75 CNS.
In assay [7] the test system is HOP-62 NSCLC.
Assay [8] deals with CCRF-CEM leukemia.
Assay [9] concerns KM12 colon.
Assay [10] relates to ACHN renal.

Consider `C[C@@H]1CCC2[C@@H](C)[C@H](OC(=O)CCC(=O)NCCNC(=O)Cc3cc(=O)oc4cc(N(C)C)ccc34)O[C@@H]3O[C@]4(C)CC[C@@H]1C23OO4` (stereo partly drawn), for which the GI50 is 1050 nM in assay [1]; 6.85 µM in [2]; 731 nM in assay [3]; 3240 nM in assay [4]; 323 nM in assay [5]; 8.22 µM in assay [6]. Moreover, the GI50 in [7] is 12.5 µM; in assay [8], 1570 nM; in [9] it was 432 nM; in [10] it was 2960 nM. Further, the TGI in assay [1] was 19.6 µM; in assay [2], above 100 µM; in assay [3], 11.1 µM; in assay [4], 18.6 µM; in assay [5], 12.8 µM; in assay [6], 29.2 µM. Besides, the TGI in assay [7] is above 62 µM; in [8], above 75.7 µM; in [9] it was 16.3 µM; in assay [10], 17.1 µM.
In the case of `NC(=O)N/N=C1/CCCC/C1=C\c1ccccc1`, the TGI in assay [1], in assay [2], in assay [3], in assay [4], in assay [5] and in [6] was above 100 µM each time. Further, the TGI in [7], in [8], in assay [9] and in assay [10] was above 100 µM throughout.
`CN1CCN(c2ccc([N+](=O)[O-])c3no[n+]([O-])c23)CC1`: the GI50 is 135 nM in assay [1]; 1.32 µM in assay [2]; 115 nM in [3]; 454 nM in assay [4]; 152 nM in assay [5]; 0.175 µM in assay [6]. For the same compound, the GI50 in [7] is 0.318 µM; in [9], 144 nM; in [10] it was 158 nM. In addition, the TGI in assay [1] was 3.43 µM and 0.512 µM; in assay [2], 2.73 µM; in assay [3], 0.507 µM and 0.26 µM; in assay [4], 2.33 µM and 1.49 µM; in assay [5] it was 1.63 µM and 0.634 µM; in assay [7], 1.26 µM and 1.39 µM. Also, the TGI in assay [8] was 0.582 µM; in assay [9], 1.6 µM and 0.291 µM; in assay [10], 0.787 µM and 0.954 µM.
`CCCCCCCCCCCCOC(=S)NC`: the TGI in assay [1] is 33.1 µM; in assay [2], 32 µM; in assay [3], 58 µM; in assay [4], 25.4 µM; in assay [5], 30.8 µM; in assay [6] it was 74.6 µM. For the same compound, the TGI was 37.3 µM in assay [7], above 100 µM in assay [8], 27.8 µM in assay [9] and 35.2 µM in [10].
For the compound `COc1cc(CCC(=O)NS(=O)(=O)c2ccccc2)cc(OC)c1OC`, the TGI in assay [1], in [2], in assay [3], in assay [4], in assay [5] and in assay [6] was above 100 µM in each case. For the same compound, the TGI in assay [7], in assay [8], in assay [9] and in assay [10] was above 100 µM throughout.
`CN(C)NC(=S)NC12CC3CC(CC(C3)C1)C2`: the TGI in assay [1], in assay [2], in [3], in [4], in assay [5] and in assay [6] was above 100 µM throughout. Further, the TGI in assay [7], in [8], in [9] and in assay [10] was above 100 µM each time.
